Several values for one entry are separate records, joined by “and”; a condition that tells them apart may be missing. Equal values may be shown once. Entries after “also recorded” stand apart in the source; their conditions may differ.
Tests used:
[1] = system: patients with unresectable locally advanced or metastatic TNBC who received at least 2 prior treatments; assay: Phase 2 single-arm open-label study of trilaciclib administered prior to sacituzumab govitecan-hziy (NCT05113966); assay type: in vivo, human; settings: for Grade ≥3 TRAEs related to the named study drug / patients with AEs related to the named study drug: combination study, attribution by investigators
Method: Early results from initial human clinical trials (see, e.g., NCT05113966) have shown trilaciclib's ability to drastically reduce side effects associated with sacituzumab govitecan administration, including a reduction in the incidence of severe (Grade 3/4) neutropenia (see, for example, Example 1, FIG. 2A). In the initial studies, 8 female patients (median age 55.0 years) had been enrolled and completed a median 3 (range 1-6) 21-day cycles, wherein sacituzumab govitecan was administered on days 1 and 8 of each 21-day cycle, and trilaciclib was administered over a 30 minute intravenous administration within 4 hours prior to administration of sacituzumab govitecan on days 1 and 8 of each 21-day cycle (see, e.g., FIG. 1). All patients had received a prior taxane and 7 had received a prior immune checkpoint inhibitor (5 atezolizumab, 2 pembrolizumab; 4 in the adjuvant setting, 3 in the metastatic setting). Severe (Grade 3/4) neutropenia occurred in only 1 patient (12.5% with trilaciclib compared with 52% in the ASCENT study). No patients had Grade 3/4 anemia or thrombocytopenia, and none had febrile neutropenia or a serious infection. Granulocyte colony-stimulating factors were administered to 2 patients (25%) and 1 patient required intravenous antibiotics. No patients required red blood cell/platelet transfusions or erythropoiesis-stimulating agents. […] There was only 1 treatment-related adverse event of diarrhea.
FIG. 1 is a schematic of a human clinical trial assessing the safety and efficacy of trilaciclib administered with sacituzumab govitecan-hziy (Trodelvy®) in patients with locally advanced or metastatic TNBC who received at least 2 prior treatments, at least 1 in the metastatic setting. The study will include 3 study phases: Screening Phase, treatment Phase, and Survival Follow-up Phase. The treatment phase consists of 21-day cycles: Trilaciclib will be administered IV prior to sacituzumab govitecan-hziy infusions. Trilaciclib will be administered via IV prior to sacituzumab govitecan-hziy administration at 240 mg/m^2. Sacituzumab govitecan-hziy will be administered via IV at 10 mg/kg. The study will include 3 study phases: Screening Phase, Treatment Phase, and Survival Follow up Phase. The Treatment Phase begins on the day of the first dose of study treatment and completes at the Safety Follow-up Visit. The first Survival Follow-up assessment should occur approximately 3 months after the End of Treatment Visit. DC=discontinuation, PD=Progressive disease, PI=Principal Investigator, WD=Withdraw.
An exploratory Phase 2, multicenter, open-label study evaluating the safety and efficacy of trilaciclib administered with sacituzumab govitecan-hziy in patients with unresectable locally advanced or metastatic TNBC who received at least 2 prior treatments, at least 1 in the metastatic setting, is provided herein.
Trilaciclib plus sacituzumab govitecan-hziy will be administered intravenously (IV) in 21-day cycles as follows: • Trilaciclib 240 mg/m^2 administered as a 30-minute IV infusion completed within 4 hours prior to the start of sacituzumab govitecan-hziy on Day 1 and Day 8 of each 21-day treatment cycle. • Sacituzumab govitecan-hziy 10 mg/kg administered IV on Day 1 and Day 8 of each 21-day treatment cycle.
The first infusion of sacituzumab govitecan-hziy is administered over 3 hours and the patient is observed during the infusion and for at least 30 minutes following the initial dose for signs or symptoms of infusion-related reactions. Subsequent infusions of sacituzumab govitecan-hziy may be administered over 1 to 2 hours if prior infusions were tolerated and patients should be observed during the infusion and for at least 30 minutes after infusion. […]

patients with mUC = settings: in vivo; cited from earlier work
[2] = system: patients with locally recurrent unresectable or metastatic TNBC whose tumors express PD-L1 (CPS ≥10); settings: cited from earlier work
[3] = system: patients with PD-L1 positive locally advanced unresectable/metastatic TNBC; settings: cited from earlier work
[4] = system: patients with unresectable locally advanced/metastatic triple-negative breast cancer, PD-L1 positive; settings: paclitaxel with vs without atezolizumab, cited from earlier work
[5] = system: patients with metastatic urothelial carcinoma (mUC) progressing after platinum-based chemotherapy and ICIs; settings: following progression; cited from earlier work
[6] = system: patients with unresectable locally advanced or metastatic triple-negative breast cancer (mTNBC); settings: cited from earlier work
[7] = system: patients with metastatic TNBC; settings: N=108; cited from earlier work
[8] = system: patients with locally advanced or mUC after platinum-containing chemotherapy and PD-1 or PD-L1 inhibitor; settings: cited from earlier work
[9] = system: patients treated with sacituzumab govitecan-hziy; settings: cited from earlier work
[10] = trilaciclib prior to sacituzumab govitecan, 8 patients
[11] = trilaciclib prior to sacituzumab govitecan, RECIST v1.1, 8 patients
[12] = mTNBC relapsed after at least two prior chemotherapies
[13] = vs physician's choice of single-agent chemotherapy

Molecule: CN1CCN(c2ccc(Nc3ncc4cc5n(c4n3)C3(CCCCC3)CNC5=O)nc2)CC1 [trilaciclib, 2′-((5-(4-methylpiperazin-1-yl)pyridin-2-yl)amino)-7′,8′-dihydro-6′H-spiro(cyclohexane-1,9′-pyrazino(1′,2′:1,5)pyrrolo(2,3-d)pyrimidin)-6′-one]
- Grade ≥3 TRAEs related to the named study drug ([1]; 8 patients): Grade 4 neutrophil count decreased
- patients with AEs related to the named study drug ([1]; 8 patients): 2 patients
- effect of inclusion of trilaciclib on side effects associated with sacituzumab govitecan ([1]; initial studies, compared with ASCENT study): drastically reduces the side effects
- Severe (Grade 3/4) neutropenia, number of patients ([1]; trilaciclib 240 mg/m^2 IV within 4 hours prior to sacituzumab govitecan-hziy 10 mg/kg, days 1 and 8 of 21-day cycles, 8 patients): 1 patient
- tolerability ([1]; trilaciclib administered prior to sacituzumab govitecan, preliminary data): well tolerated
- Severe (Grade 3/4) neutropenia, percentage of patients ([1]; trilaciclib prior to sacituzumab govitecan, days 1 and 8 of 21-day cycles, 8 patients): 12.5%
- Grade 3/4 anemia, patients [1, 10]: No patients
- Grade 3/4 thrombocytopenia, patients [1, 10]: No patients
- Granulocyte colony-stimulating factors administered, number of patients [1, 10]: 2 patients
- Granulocyte colony-stimulating factors administered, percentage of patients [1, 10]: 25%
- febrile neutropenia, patients [1, 10]: none
- patients with Grade ≥3 TRAEs [1, 10]: Two
- patients with ≥1 treatment-related adverse event (TRAE) [1, 10]: 5 patients
- required erythropoiesis-stimulating agents, patients [1, 10]: No patients
- required intravenous antibiotics, number of patients [1, 10]: 1 patient
- required red blood cell/platelet transfusions, patients [1, 10]: No patients
- serious adverse events reported to date [1, 10]: no serious AEs; also recorded: no serious adverse events
- serious infection, patients [1, 10]: none
- withdrawn due to an adverse event, patients [1, 10]: No patients
- treatment-related adverse event (TRAE) of diarrhea, number ([1]; trilaciclib prior to sacituzumab govitecan, 8 patients, trilaciclib- and sacituzumab govitecan-related): 1
- partial response, number of patients [1, 11]: one
- stable disease, number of patients [1, 11]: three

Molecule: COc1cc(OC)cc(N(CCNC(C)C)c2ccc3ncc(-c4cnn(C)c4)nc3c2)c1 [erdafitinib]
- objective response rates (ORRs) (patients with mUC): approximately 40%

Molecule: pembrolizumab: PD-1 inhibitor given in combination with chemotherapy for PD-L1 expressing TNBC
- median PFS ([2]; pembrolizumab plus chemotherapy arm): 9.7 months
- PFS HR ([2]; pembrolizumab plus chemotherapy vs placebo arm): 0.65

Molecule: atezolizumab: a programmed death-ligand 1 (PD-L1) blocking antibody (immune checkpoint inhibitor)
- survival (lived for an average of) ([3]; PD-L1 positive subset, atezolizumab or placebo plus nab-paclitaxel): 25 months
- median progression-free survival (PFS) ([3]; PD-L1 positive tumors, atezolizumab plus nab-paclitaxel vs placebo plus nab-paclitaxel): 7.4 months
- PFS hazard ratio [HR] ([3]; PD-L1 positive, atezolizumab plus nab-paclitaxel vs placebo plus nab-paclitaxel): 0.60
- PFS HR ([4]; frontline): 0.82
- survival HR [4]: 1.11

Molecule: CC[C@]12C=CCN3CC[C@@]4(c5cc([C@@]6(C(=O)OC)C[C@@H]7C[C@@H](C(C)(F)F)CN(Cc8c6[nH]c6ccccc86)C7)c(OC)cc5N(C)[C@H]4[C@@](O)(C(=O)OC)[C@@H]1OC(C)=O)[C@@H]32 [vinflunine]
- median overall survival (OS) [5]: 7-8 months
- response rates [5]: approximately 10%

Molecule: sacituzumab govitecan
- Grade ≥3 TRAEs related to the named study drug ([1]; 8 patients): Grade 3 alopecia and Grade 3 neutropenia; also recorded: Grade 4 neutrophil count decreased
- patients with AEs related to the named study drug ([1]; 8 patients): 5 patients
- Severe (Grade 3/4) neutropenia, patients ([6]; ASCENT study, without trilaciclib): 52%
- G-CSF used as a rescue therapy, patients ([6]; ASCENT study): 44%
- adverse reaction leading to a dose reduction, patients ([6]; ASCENT study): 22%
- adverse reaction leading to treatment interruption, patients ([6]; ASCENT study): 45%
- permanently discontinued for adverse reactions, patients ([6]; mTNBC patients, ASCENT study): 5%
- median overall survival (OS) [6, 12]: 11.8 months
- median progression free survival (PFS) [6, 12]: 4.8 months
- OS hazard ratio (HR) [6, 13]: 0.51
- PFS hazard ratio [HR] [6, 13]: 0.43
- ORR [7]: 33.3%
- median duration of response (DOR) [7]: 7.7 months
- patients having a DOR of ≥6 months [7]: 55.5%
- patients having a DOR of ≥12 months [7]: 16.7%
- objective (overall) response rate (ORR) ([8]; 10 mg/kg intravenously, days 1 and 8 of a 21-day cycle, 112 patients, RECIST 1.1): 27.7%
- median duration of response (DOR) ([8]; 10 mg/kg intravenously, days 1 and 8 of a 21-day cycle): 7.2 months and 7.1 months
- complete responses ([8]; 112 patients): 5.4%
- partial responses ([8]; 112 patients): 22.3%
- Diarrhea, patients ([9]; all grades, all patients treated): 65%
- neutropenia, patients ([9]; all grades): 61%
- Grade 3-4 diarrhea, patients ([9]; all patients treated): 12%
- Grade 3-4 neutropenia, patients ([9]; in vivo): 47%
- Neutropenic colitis, patients ([9]; in vivo): 0.5%
- febrile neutropenia, patients ([9]; in vivo): 7%
- intestinal perforation following diarrhea, number of patients ([9]; in vivo): One
